Data set [1] deals with T1, recombinant CYP3A4 (Homo sapiens, UniProt P08684).
T1 construct: purchased Thermo Fisher Scientific; host or cells: insect cells (microsomes)
The data set is described as follows: CYP3A4 enzyme kinetics, Lineweaver–Burk plot and secondary plot for Ki. The class given is in vitro ADME. On the procedure:
Next, we measured the kinetics of betanin metabolization by recombinant CYP3A4. Using the Michaelis constant (Km) and Vmax, we generated a Lineweaver–Burk plot. To obtain inhibition constant (Ki) values, various concentrations of BOMCC were incubated in the absence or presence of 3–100 μM betanin.
Data were obtained from 30 min incubation with BOMCC (1–20 μM) in the absence or presence of betanin (3–100 μM). All data are represented as mean ± SD from at least three independent experiments.
CYP activity was measured using Vivid CYP screening kits supplied with P450 BACULOSOMES Plus Reagent containing each CYP. The assays were conducted in the absence or presence of betanin and different concentrations of specific substrates. BOMCC was used as a specific substrate for CYP3A4. Lineweaver–Burk plots were generated for the determination of CYP activity in the absence or presence of betanin.

The target in the next data set is T2, recombinant CYP2C9 (Homo sapiens, UniProt P11712).
T2 construct: purchased; host or cells: insect cells (microsomes)
T2 sequence (P11712 whole entry): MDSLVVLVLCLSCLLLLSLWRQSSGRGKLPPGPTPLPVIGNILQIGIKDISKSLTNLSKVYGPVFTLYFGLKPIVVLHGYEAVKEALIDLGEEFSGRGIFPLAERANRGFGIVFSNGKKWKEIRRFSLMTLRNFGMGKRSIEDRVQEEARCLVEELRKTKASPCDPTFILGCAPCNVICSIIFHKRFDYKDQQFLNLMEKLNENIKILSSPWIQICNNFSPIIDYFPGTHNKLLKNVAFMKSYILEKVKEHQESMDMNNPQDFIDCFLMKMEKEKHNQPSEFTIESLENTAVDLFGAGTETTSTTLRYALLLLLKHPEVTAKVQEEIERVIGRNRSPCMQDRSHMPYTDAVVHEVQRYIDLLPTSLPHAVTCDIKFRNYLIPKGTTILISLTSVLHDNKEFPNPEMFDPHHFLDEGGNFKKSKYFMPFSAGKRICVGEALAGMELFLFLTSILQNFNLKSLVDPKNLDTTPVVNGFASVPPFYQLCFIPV
The data set can be described thus: Vivid fluorescence-based CYP inhibition assay, recombinant CYP2C9 (BOMCC substrate). The class given is in vitro ADME. As to the method: (§1) We measured the activity of six representative CYPs using Vivid CYP screening kits. CYP activity was evaluated using recombinant CYPs and specific fluorescent substrates 7-ethoxymethoxy-3-cyanocoumarin (EOMCC) and 7-benzyloxymethyloxy-3-cyanocoumarin (BOMCC).
(§2) Raw fluorescence data were normalized against control activity values of 0% and 100%. Control 0% activity values were obtained from samples consisting of 0.5% DMSO and the enzyme solvent buffer without the enzyme. Maximum 100% activity values were expressed as a reaction with only enzymes and 0.5% DMSO, with no other drugs. Furafylline (FRL) 100 μM, bupropion (BPP) 50 μM, omeprazole (OPZ) 50 μM, fluvoxamine (FVX) 100 μM, quinidine (QND) 50 μM, and ketoconazole (KCZ) 1 μM were used as positive controls for the fluorescence-based assay. […] Raw data were normalized using the software GraphPad Prism 8.02. The data represent the mean ± SEM of triplicate independent experiments.
(§3) Fluorescence-based assays were performed according to the manufacturer’s instructions. […] The plates were immediately measured in the kinetic mode using a SpectraMax M3 Multi-Mode Microplate Reader (Bio-Rad, Hercules, CA, USA). […] The signals were measured using a SpectraMax M3 Multi-Mode Microplate Reader (Bio-Rad). Data fitting generated a sigmoidal dose–response curve with values calculated using Microsoft Excel 2016 (Microsoft Corporation, Redmond, WA, USA).

In the next data set the test system is CYP2B6. The data set is described as follows: P450-Glo luminescence-based CYP induction assay in HepG2 cells, CYP2B6 (Luciferin-2B6). Format: in vitro ADME, human. Details: induction of CYP2B6 activity in HepG2 cells by positive control inducer: dose or concentration left out as unconfirmed.
Another data set has as its system CYP1A2. The data set is described as follows: P450-Glo luminescence-based CYP induction assay in HepG2 cells, CYP1A2 (Luciferin-1A2). The conditions noted are these: betanin 0.1–100 μM, versus control (DMSO 0.5%). The source says:
(§4) Results are mean ± SEM of triplicate independent experiments.

A further data set has as its target T3, recombinant CYP1A2 (Homo sapiens, UniProt P05177).
T3 construct: purchased Thermo Fisher Scientific; host or cells: insect cells (microsomes)
T3 sequence (P05177 2-516 limits assumed): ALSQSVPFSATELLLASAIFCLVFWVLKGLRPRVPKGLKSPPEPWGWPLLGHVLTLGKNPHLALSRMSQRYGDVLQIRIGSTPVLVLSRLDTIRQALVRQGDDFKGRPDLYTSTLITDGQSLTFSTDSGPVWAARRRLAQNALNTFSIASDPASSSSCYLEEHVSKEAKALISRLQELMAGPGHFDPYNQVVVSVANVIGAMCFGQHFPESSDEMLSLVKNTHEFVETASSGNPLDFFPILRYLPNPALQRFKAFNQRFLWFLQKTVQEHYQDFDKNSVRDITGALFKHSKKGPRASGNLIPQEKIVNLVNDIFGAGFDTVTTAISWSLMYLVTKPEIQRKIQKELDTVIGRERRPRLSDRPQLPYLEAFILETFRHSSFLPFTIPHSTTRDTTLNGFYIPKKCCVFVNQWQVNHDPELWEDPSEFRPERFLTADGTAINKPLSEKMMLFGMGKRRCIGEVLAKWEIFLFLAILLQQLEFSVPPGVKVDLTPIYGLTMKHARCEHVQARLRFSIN
The data set is described as follows: Vivid fluorescence-based CYP inhibition assay, recombinant CYP1A2 (EOMCC substrate). Format: in vitro ADME. On the procedure: as §1, §2, §3

Data set [2] deals with T1, recombinant CYP3A4. The data set is described as follows: Vivid fluorescence-based CYP inhibition assay, recombinant CYP3A4 (BOMCC substrate). The class given is in vitro ADME. As to the method:
as §1, §2
Fluorescence-based assays were performed according to the manufacturer’s instructions. Control, CYP positive control inhibitor, and betanin (0.1–100 μM) solutions were prepared by diluting the compounds with Vivid CYP Reaction Buffer (Table 1). Next, 40 µL of control, CYP positive control inhibitor, or betanin solution was dispensed into the wells of black 96-well plates. A Master Pre-Mix was prepared by diluting the P450 BAC-ULOSOMES Plus Reagent and Vivid Regeneration System in Vivid CYP Reaction Buffer. The P450 BACULOSOMES Plus Reagents are microsomes made from insect cells that express human cytochrome P450 reductase and CYP450 isozyme. […] The plates were immediately measured in the kinetic mode using a SpectraMax M3 Multi-Mode Microplate Reader (Bio-Rad, Hercules, CA, USA). […] The signals were measured using a SpectraMax M3 Multi-Mode Microplate Reader (Bio-Rad). Data fitting generated a sigmoidal dose–response curve with values calculated using Microsoft Excel 2016 (Microsoft Corporation, Redmond, WA, USA).

For another data set, the system named is CYP2C9. The data set is described as follows: P450-Glo luminescence-based CYP induction assay in HepG2 cells, CYP2C9 (Luciferin-H). Format: in vitro ADME, human. The settings on record: betanin 0.1–100 μM, versus control (DMSO 0.5%).
Source text: as §4

The next data set has as its system HepG2 cells. The data set is described as follows: MTT cell viability assay. Format: cell-based, human. The conditions noted are these: 0.1–100 μM, 48 h. On the procedure: Human hepatocellular carcinoma (HepG2) cells were cultured in Minimum Essential Medium (MEM) supplemented with 10% fetal bovine serum and 1% penicillin–streptomycin. HepG2 cells were maintained at 37 °C in a humidified environment with a 5% CO₂ atmosphere. The culture medium was replaced every day before measuring CYP activity. HepG2 cells were grown in opaque 96-well plates at a density of 1 × 10^4 cells/well. After 24 h, the cells were added with the desired concentration of betanin for 48 h. Next, 20 µL of 5 mg/mL MTT solution in PBS was added to each well and incubated for 2 h. After removing the supernatant, 100 µL of DMSO was dispensed into each well and the plate was incubated for 10 min.
(Tetrazolium assays rely on reduction of a dye to a coloured formazan, in cell work by metabolically active cells.)

Another data set concerns the target T4, recombinant CYP2D6 (Homo sapiens, UniProt P10635).
T4 construct: purchased Thermo Fisher Scientific; host or cells: insect cells (microsomes)
The data set can be described thus: Vivid fluorescence-based CYP inhibition assay, recombinant CYP2D6 (EOMCC substrate). The class given is in vitro ADME. On the procedure:
as §1, §2, §3

The target in the next data set is T5, recombinant CYP2C19 (Homo sapiens, UniProt P33261).
T5 construct: purchased Thermo Fisher Scientific; host or cells: insect cells (microsomes)
T5 sequence (P33261 whole entry): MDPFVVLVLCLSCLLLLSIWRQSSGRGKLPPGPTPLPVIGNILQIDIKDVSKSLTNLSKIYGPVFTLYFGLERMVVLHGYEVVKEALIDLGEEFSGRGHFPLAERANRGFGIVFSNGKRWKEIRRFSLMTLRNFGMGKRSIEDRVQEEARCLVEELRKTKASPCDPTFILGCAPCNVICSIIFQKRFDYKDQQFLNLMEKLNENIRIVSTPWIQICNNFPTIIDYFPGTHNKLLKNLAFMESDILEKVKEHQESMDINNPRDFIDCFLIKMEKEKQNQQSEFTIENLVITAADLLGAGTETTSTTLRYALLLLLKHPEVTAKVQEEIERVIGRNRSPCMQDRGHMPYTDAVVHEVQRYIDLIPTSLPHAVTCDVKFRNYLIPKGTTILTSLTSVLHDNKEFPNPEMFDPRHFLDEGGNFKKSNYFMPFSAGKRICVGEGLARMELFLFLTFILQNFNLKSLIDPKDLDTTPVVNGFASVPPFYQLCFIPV
The data set can be described thus: Vivid fluorescence-based CYP inhibition assay, recombinant CYP2C19 (EOMCC substrate). The class given is in vitro ADME. On the procedure: as §1, §2, §3

The next data set deals with T6, recombinant CYP2B6 (Homo sapiens, UniProt P20813).
T6 construct: purchased Thermo Fisher Scientific; host or cells: insect cells (microsomes)
T6 sequence (P20813 1-491): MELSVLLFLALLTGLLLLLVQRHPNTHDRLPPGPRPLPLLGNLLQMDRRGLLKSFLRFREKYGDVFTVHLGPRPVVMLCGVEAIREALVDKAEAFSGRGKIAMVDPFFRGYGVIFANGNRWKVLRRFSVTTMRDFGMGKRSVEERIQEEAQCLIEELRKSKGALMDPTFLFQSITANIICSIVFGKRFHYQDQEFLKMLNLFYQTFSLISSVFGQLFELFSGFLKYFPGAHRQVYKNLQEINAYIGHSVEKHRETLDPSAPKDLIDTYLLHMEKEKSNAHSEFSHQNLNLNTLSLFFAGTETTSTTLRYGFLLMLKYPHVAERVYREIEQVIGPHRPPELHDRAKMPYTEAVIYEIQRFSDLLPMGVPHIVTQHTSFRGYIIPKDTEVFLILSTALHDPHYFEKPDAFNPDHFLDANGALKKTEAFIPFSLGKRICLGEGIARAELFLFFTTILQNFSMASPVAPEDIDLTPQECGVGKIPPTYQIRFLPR
The data set is described as follows: Vivid fluorescence-based CYP inhibition assay, recombinant CYP2B6 (BOMCC substrate). Format: in vitro ADME. On the procedure: as §1, §2, §3

Setting [3] is: at any of the tested dosages (0.1–100 μM).
The mark [4] stands for this setting: fluorescence-based, BOMCC substrate, betanin 0.1–100 μM.
Setting [5] is: fluorescence-based, EOMCC substrate, betanin 0.1–100 μM.

The structures appear in SMILES notation.

For orientation: Ki means the dissociation constant of the complex between target and ligand, obtained from inhibition or displacement. A word on the IC50: it is the concentration at which inhibition is half-maximal.

T1 sequence (P08684 2-503 limits assumed): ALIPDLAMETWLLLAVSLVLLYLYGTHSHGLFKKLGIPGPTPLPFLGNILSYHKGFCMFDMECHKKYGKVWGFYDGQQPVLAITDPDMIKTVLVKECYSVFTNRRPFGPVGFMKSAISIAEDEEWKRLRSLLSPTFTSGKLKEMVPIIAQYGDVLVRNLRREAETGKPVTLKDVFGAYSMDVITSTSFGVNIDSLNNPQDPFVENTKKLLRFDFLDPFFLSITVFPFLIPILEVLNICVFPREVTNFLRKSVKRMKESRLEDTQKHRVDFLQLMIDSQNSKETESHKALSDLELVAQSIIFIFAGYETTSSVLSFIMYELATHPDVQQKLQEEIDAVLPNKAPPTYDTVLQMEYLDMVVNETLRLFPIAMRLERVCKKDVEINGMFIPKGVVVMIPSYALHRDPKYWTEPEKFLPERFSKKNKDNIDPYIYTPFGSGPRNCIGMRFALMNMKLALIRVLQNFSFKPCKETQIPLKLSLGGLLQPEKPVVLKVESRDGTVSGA
T4 sequence (P10635 whole entry): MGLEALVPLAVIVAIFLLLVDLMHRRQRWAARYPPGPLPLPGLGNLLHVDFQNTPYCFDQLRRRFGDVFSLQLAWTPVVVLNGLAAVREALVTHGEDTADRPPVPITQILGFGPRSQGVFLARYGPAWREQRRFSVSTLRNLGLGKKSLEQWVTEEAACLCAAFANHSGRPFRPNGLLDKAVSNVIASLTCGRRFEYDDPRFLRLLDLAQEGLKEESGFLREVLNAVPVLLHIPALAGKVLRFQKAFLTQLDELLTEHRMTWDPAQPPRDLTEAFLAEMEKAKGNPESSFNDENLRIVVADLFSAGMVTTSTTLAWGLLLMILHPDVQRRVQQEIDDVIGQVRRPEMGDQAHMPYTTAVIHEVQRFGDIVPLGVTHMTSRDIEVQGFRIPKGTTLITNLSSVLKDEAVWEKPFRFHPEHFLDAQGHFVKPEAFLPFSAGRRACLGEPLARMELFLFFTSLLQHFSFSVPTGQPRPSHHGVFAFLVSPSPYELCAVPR

Turning to `O=C(O)C1=C/C(=C/C=[N+]2/c3cc(O)c(OC4OC(CO)[C@@H](O)C(O)C4O)cc3CC2C(=O)[O-])CC(C(=O)O)N1` (stereo in doubt) [betanin, Betanin], at recombinant CYP3A4 [1] (1–20 μM BOMCC, 3, 10, 30 and 100 μM betanin, 30 min incubation, read-out: Ki (inhibition constant) for CYP3A4), the Ki came out at 19.5 µM. In addition, the “mode of inhibition of CYP3A4” value on recombinant CYP3A4 [1] (Lineweaver–Burk and secondary plots) is “competitive inhibitor”. Besides, the “inhibitory effect on recombinant CYP2C9” value at recombinant CYP2C9 (setting [3]) is given as no more than 30%. Besides, the half-inhibitory concentration (IC50) at recombinant CYP2C9 (setting [4]) was greater than 100 µM; at recombinant CYP1A2 (setting [5]), greater than 100 µM; on recombinant CYP3A4 [2] (fluorescence-based, BOMCC substrate, betanin 0.1–100 μM, 95% CI 19.09–23.06 μM) it was 21 µM; on recombinant CYP2D6 (setting [5]) it was greater than 100 µM; on recombinant CYP2C19 (setting [5]) it was greater than 100 µM; on recombinant CYP2B6 (setting [4]), greater than 100 µM. Further, the “induction effect on CYP2B6 activity in HepG2 cells” value with CYP2B6 (betanin 0.1–100 μM, versus control (DMSO 0.5%)) is recorded as “did not show any induction effect”. The “induction effect on CYP1A2 activity in HepG2 cells” value in the data set with CYP1A2 is given as “did not show any induction effect”. For the same molecule, the “inhibitory effect on recombinant CYP1A2” value on recombinant CYP1A2 (setting [3]) is reported as no more than 30%. In addition, the “inhibition of recombinant CYP3A4” value at recombinant CYP3A4 [2] (30 μM) worked out at 58%; at recombinant CYP3A4 [2] (100 μM), 87%. In addition, the “induction effect on CYP2C9 activity in HepG2 cells” value in the data set with CYP2C9 was “did not show any induction effect”. Further, the “cytotoxicity toward HepG2 cells (MTT)” value in the data set with HepG2 cells is given as “no cytotoxicity”. On recombinant CYP2D6 (100 μM), the “inhibitory effect on recombinant CYP2D6” value was found to be 33%. Also, at recombinant CYP2C19 (setting [3]), the “inhibitory effect on recombinant CYP2C19” value is no more than 30%. Further, the “inhibitory effect on recombinant CYP2B6” value at recombinant CYP2B6 (setting [3]) is no more than 30%.

For the molecule `CO[C@H]1/C=C/O[C@@]2(C)Oc3c(C)c(O)c4c(O)c(c(/C=N/N5CCN(C)CC5)c(O)c4c3C2=O)NC(=O)/C(C)=C\C=C\[C@H](C)[C@H](O)[C@@H](C)[C@@H](O)[C@@H](C)[C@H](OC(C)=O)[C@@H]1C` [rifampin, reference compound], in the data set on CYP2B6 (compared to the control group), the “induction of CYP2B6 activity in HepG2 cells by positive control inducer” value is reported as “significantly induced”.

The record behind these values is article PMC10537618, “Effect of Betanin, the Major Pigment of Red Beetroot (Beta vulgaris L.), on the Activity of Recombinant Human Cytochrome P450 Enzymes” (Pharmaceuticals, 2023).
